Source: patent US11427539B2, “Beta-hydroxy heterocyclic amines and their use in the treatment of hyperglycaemia” (ATROGI AB, priority 2017, dated 2022)
Where a name gives a salt, the structure may show the parent alone. Read-outs that look alike come from different tables or passages of the source.

Tests used:
[1] = system: Differentiated L6-myotubes; test: Glucose uptake in differentiated L6-myotubes (3H-2-deoxy-glucose); format: cell-based; settings: for Emax: read-out: Biological example 1: glucose uptake, activity compared to that of isoproterenol; for Biological example 1: glucose uptake, activity compared to that of isoproterenol: Hydrochloride
[2] = system: Intracellular cAMP levels in differentiated cells (L6-myotubes); test: Measurement of intracellular cAMP levels (alpha screen cAMP kit); format: cell-based; settings: for Emax: 0.25 h, read-out: Biological example 2: intracellular cAMP levels, activity compared to that of isoproterenol
Procedure: L6-myoblasts were grown in Dulbecco's Modified Eagle's Medium (DMEM) containing 4.5 g/l glucose supplemented with 10% fetal bovine serum, 2 mM L-Glutamine, 50 U/ml penicillin, 50 μg/ml streptomycin and 10 mM HEPES. Cells were plated at 1×10^5 cells per ml in 24-well plates. After reaching 90% confluence the cells were grown in medium containing 2% FBS for 7 days where upon cells differentiated into myotubes. Differentiated cells were serum-starved over night and stimulated with agonist, final concentration 1×10-^5, for 15 min in stimulation buffer (HBSS supplemented with 1% BSA, 5 mM HEPES and 1 mM IBMX, pH 7.4) The medium was then aspirated and to end the reaction 100 μL of 95% EtOH was added to each well of a 24-well plate and cells were kept in −20° C. over night. The EtOH was let to evaporate and 500 μL of lysis buffer (1% BSA, 5 mM HEPES and 0.3% Tween-20, pH 7.4) was added to each well before put in −80° C. for 30 min and then kept in −20° C. Intracellular cAMP levels were detected using an alpha screen cAMP kit (6760635D from Perkin Elmer). The activity for each compound is compared to that of isoproterenol.

[3] = agonist final concentration 1×10^−5, L6-myotubes, 3H-2-deoxy-glucose uptake, relative to isoproterenol
[4] = agonist final concentration 1×10-^5, 15 min, differentiated cells, relative to isoproterenol

`C[C@H]1CC[C@@H]([C@H](O)c2cccc(O)c2)N1` (racemic) [Example 9, Racemic mixture of 3-((R)-Hydroxy((2S,5S)-5-methylpyrrolidin-2-yl)methyl)-phenol Acetate and 3-((S)-Hydroxy((2R,5R)-5-methylpyrrolidin-2-yl)methyl)phenol Acetate] was tested. Which Emax [1, 3] did it give?
The Emax was 50 to 75%.

And the Emax [2, 4]?
Its Emax is < 25%.

Which results are given for `C[C@@H]1CC[C@H]([C@H](O)c2cccc(O)c2)N1` (racemic) [Example 10, Racemic Mixture of 3-((R)-Hydroxy((2R,5R)-5-methylpyrrolidin-2-yl)methyl)-phenol Acetate and 3-((S)-Hydroxy((2S,5S)-5-methylpyrrolidin-2-yl)methyl)phenol Acetate]?
Emax [1, 3]: > 75%; Emax [2, 4]: < 25%

For `C[C@H]1CC[C@@H]([C@H](O)c2ccccc2)N1` (racemic) [Example 11, Racemic mixture of (R)-((2S,5S)-5-Methylpyrrolidin-2-yl)(phenyl)methanol and (S)-((2R,5R)-5-Methylpyrrolidin-2-yl)(phenyl)methanol], which Emax [1] is on record?
Its Emax is 25 to 50%.

What about the Emax [2] of the same molecule?
The Emax was < 25%.

How did the Emax [1] turn out when `C[C@@H]1CC[C@H]([C@H](O)c2ccccc2)N1` (racemic) [Example 12, Racemic mixture of (R)-((2R,5R)-5-Methylpyrrolidin-2-yl)(phenyl)methanol and (S)-((2S,5S)-5-Methylpyrrolidin-2-yl)(phenyl)methanol] was run?
Its Emax is 50 to 75%.

What about the Emax [2] of the same molecule?
Its Emax is < 25%.

Which Emax [1, 3] does the source give for `CCCC1CCC[C@H](C(O)c2cccc(O)c2)N1` (stereo in doubt) [Example 19, 3-((R)-Hydroxy((2R,6R)-6-propylpiperidin-2-yl)methyl)phenol Hydrochloride] here?
The Emax was 25 to 50%.

And the Emax [2, 4]?
Its Emax is < 25%.

What does the source list for `CCC[C@@H]1CCCC([C@@H](O)c2cccc(O)c2)N1` (stereo in doubt) [Example 33, 3-((S)-hydroxy((2S,6R)-6-propylpiperidin-2-yl)methyl)phenol Hydrochloride]?
Biological example 1: glucose uptake, activity compared to that of isoproterenol [1, 3]: ++ (between 75 and 50%); Biological example 2: intracellular cAMP levels, activity compared to that of isoproterenol [2, 4]: − (less than 25%)

For `CCC[C@H]1CC[C@H](C(O)c2cccc(O)c2)N1` (stereo in doubt) [Example 46, 3-((R)-hydroxy((2R,5S)-5-propylpyrrolidin-2-yl)methyl)phenol], which Emax [1, 3] is on record?
Its Emax is 50 to 75%.

What about the Emax [2, 4] of the same molecule?
Its Emax is < 25%.

For `CCC[C@@H]1CCC[C@H]([C@H](O)c2cccc(F)c2)N1` [Example 1, (R)-(3-Fluorophenyl)((2R,6R)-6-propylpiperidin-2-yl)methanol], which Emax [1, 3] is on record?
The Emax was 25 to 50%.

What about the Emax [2, 4] of the same molecule?
The Emax was < 25%.

For `CCC[C@H]1CCC[C@H]([C@H](O)c2cccc(F)c2)N1` [Example 2, (R)-(3-Fluorophenyl)((2R,6S)-6-propylpiperidin-2-yl)methanol], which Emax [1, 3] is on record?
The Emax was > 75%.

And the Emax [2, 4]?
The Emax was < 25%.

Which results are given for `CCC[C@H]1CCC[C@H]([C@H](O)c2cc(F)cc(F)c2)N1` [Example 3, (R)-(3,5-Difluorophenyl)((2R,6S)-6-propylpiperidin-2-yl)methanol]?
Emax [1, 3]: > 75%; Emax [2, 4]: < 25%

With `CCC[C@H]1CCC[C@H]([C@H](O)c2ccc(F)c(F)c2)N1` [Example 4, (R)-(3,4-Difluorophenyl)((2R,6S)-6-propylpiperidin-2-yl)methanol] as the molecule, how does the Emax [1, 3] read?
Its Emax is 50 to 75%.

What about the Emax [2, 4] of the same molecule?
Its Emax is < 25%.

Which results are given for `CCC[C@H]1CCC[C@H]([C@H](O)c2cccc(O)c2)N1` [Example 5, 3-((R)-Hydroxy((2R,6S)-6-propylpiperidin-2-yl)methyl)phenol Acetate]?
Emax [1, 3]: > 75%; Emax [2, 4]: < 25%

With `CCC[C@@H]1CCC[C@H]([C@H](O)c2cccc(O)c2)N1` [Example 6, 3-((R)-Hydroxy((2R,6R)-6-propylpiperidin-2-yl)methyl)phenol] as the molecule, how does the Emax [1, 3] read?
The Emax was 50 to 75%.

What about the Emax [2, 4] of the same molecule?
The Emax was < 25%.

With `CCC[C@@H]1CC[C@H]([C@H](O)c2cccc(F)c2)N1` [Example 7, (R)-(3-Fluorophenyl)((2R,5R)-5-propylpyrrolidin-2-yl)methanol Acetate] as the molecule, how does the Emax [1, 3] read?
Its Emax is > 75%.

What about the Emax [2, 4] of the same molecule?
Its Emax is < 25%.

What does the source list for `CCC[C@@H]1CC[C@H]([C@H](O)c2cccc(O)c2)N1` [Example 8, 3-((R)-Hydroxy((2R,5R)-5-propylpyrrolidin-2-yl)methyl)phenol]?
Emax [1, 3]: > 75%; Emax [2, 4]: 25 to 50%

`CCC[C@@H]1CCC[C@H]([C@@H](O)c2cccc(F)c2)N1` [Example 13, (S)-(3-Fluorophenyl)((2R,6R)-6-propylpiperidin-2-yl)methanol] was tested. Which Emax [1, 3] did it give?
The Emax was 50 to 75%.

What about the Emax [2, 4] of the same molecule?
Its Emax is < 25%.

How did the “Biological example 1: glucose uptake, activity compared to that of isoproterenol” value [1, 3] turn out when `CCC[C@@H]1CCC[C@H]([C@@H](O)c2cccc(O)c2)N1` [Example 14, 3-((S)-Hydroxy((2R,6R)-6-propylpiperidin-2-yl)methyl)phenol Hydrochloride] was run?
The value was “+ (between 50 and 25%)”.

What about the Emax [2, 4] of the same molecule?
Its Emax is < 25%.

For `CCC[C@@H]1CCC[C@H]([C@H](O)c2ccc(F)cc2)N1` [Example 15, (R)-(4-Fluorophenyl)((2R,6R)-6-propylpiperidin-2-yl)methanol], which Emax [1, 3] is on record?
Its Emax is 50 to 75%.

And the Emax [2, 4]?
Its Emax is < 25%.

Which results are given for `CCC[C@@H]1CCC[C@H]([C@H](O)c2ccccc2F)N1` [Example 16, (R)-(2-Fluorophenyl)((2R,6R)-6-propylpiperidin-2-yl)methanol]?
Emax [1, 3]: 50 to 75%; Emax [2, 4]: < 25%

How did the Emax [1, 3] turn out when `CCC[C@@H]1CCC[C@H]([C@@H](O)c2ccccc2F)N1` [Example 17, (S)-(2-Fluorophenyl)((2R,6R)-6-propylpiperidin-2-yl)methanol hydrochloride] was run?
The Emax was 25 to 50%.

What about the Emax [2, 4] of the same molecule?
The Emax was < 25%.

How did the Emax [1, 3] turn out when `CCC[C@H]1CCC[C@H]([C@@H](O)c2cccc(F)c2)N1` [Example 18, (S)-(3-Fluorophenyl)((2R,6S)-6-propylpiperidin-2-yl)methanol] was run?
Its Emax is 50 to 75%.

And the Emax [2, 4]?
Its Emax is < 25%.

For `CCC[C@H]1CCC[C@H]([C@H](O)c2cccc(Cl)c2)N1` [Example 20, (R)-(3-Chlorophenyl)((2R,6S)-6-propylpiperidin-2-yl)methanol hydrochloride], which Emax [1, 3] is on record?
Its Emax is 25 to 50%.

What about the Emax [2, 4] of the same molecule?
The Emax was < 25%.

Which Emax [1, 3] does the source give for `CCC[C@H]1CCC[C@H]([C@@H](O)c2cccc(Cl)c2)N1` [Example 21, (S)-(3-Chlorophenyl)((2R,6S)-6-propylpiperidin-2-yl)methanol hydrochloride] here?
Its Emax is 25 to 50%.

What about the Emax [2, 4] of the same molecule?
The Emax was < 25%.

Which results are given for `CCC[C@H]1CCC[C@H]([C@H](O)c2ccccc2F)N1` [Example 22, (R)-(2-Fluorophenyl)((2R,6S)-6-propylpiperidin-2-yl)methanol]?
Emax [1, 3]: 50 to 75%; Emax [2, 4]: < 25%

`CCC[C@H]1CCC[C@H]([C@H](O)c2ccccc2Cl)N1` [Example 24, (R)-(2-Chlorophenyl)((2R,6S)-6-propylpiperidin-2-yl)methanol] was tested. Which Emax [1, 3] did it give?
Its Emax is 25 to 50%.

And the Emax [2, 4]?
Its Emax is < 25%.

Which Emax [1, 3] does the source give for `CCC[C@H]1CCC[C@H]([C@H](O)c2ccc(F)cc2)N1` [Example 25, (R)-(4-Fluorophenyl)((2R,6S)-6-propylpipehdin-2-yl)methanol] here?
Its Emax is 50 to 75%.

And the Emax [2, 4]?
Its Emax is < 25%.

With `CCC[C@H]1CCC[C@H]([C@@H](O)c2cc(F)cc(F)c2)N1` [Example 27, (S)-(3,5-Difluorophenyl)((2R,6S)-6-propylpiperidin-2-yl)methanol acetate] as the molecule, how does the Emax [1, 3] read?
The Emax was 25 to 50%.

What about the Emax [2, 4] of the same molecule?
Its Emax is < 25%.

`CCC[C@H]1CCC[C@H]([C@@H](O)c2ccc(F)c(F)c2)N1` [Example 28, (S)-(3,4-Difluorophenyl)((2R,6S)-6-propylpiperidin-2-yl)methanol] was tested. Which Emax [1, 3] did it give?
The Emax was 25 to 50%.

What about the Emax [2, 4] of the same molecule?
The Emax was < 25%.

How did the Emax [1, 3] turn out when `CCC[C@@H]1CCC[C@@H]([C@H](O)c2cccc(F)c2)N1` [Example 29, (R)-(3-Fluorophenyl)((2S,6R)-6-propylpiperidin-2-yl)methanol hydrochloride] was run?
Its Emax is 25 to 50%.

And the Emax [2, 4]?
Its Emax is < 25%.

What does the source list for `CCC[C@@H]1CCC[C@@H]([C@H](O)c2cccc(Cl)c2)N1` [Example 30, (R)-(3-Chlorophenyl)((2S,6R)-6-propylpiperidin-2-yl)methanol hydrochloride]?
Emax [1, 3]: > 75%; Emax [2, 4]: < 25%

With `CCC[C@@H]1CCC[C@@H]([C@H](O)c2cccc(O)c2)N1` [Example 32, 3-((R)-hydroxy((2S,6R)-6-propylpiperidin-2-yl)methyl)phenol Hydrochloride] as the molecule, how does the Emax [1, 3] read?
Its Emax is > 75%.

And the Emax [2, 4]?
The Emax was < 25%.

Which results are given for `CCC[C@H]1CCC[C@@H]([C@H](O)c2cccc(F)c2)N1` [Example 34, (R)-(3-Fluorophenyl)((2S,6S)-6-propylpiperidin-2-yl)methanol hydrochloride]?
Emax [1, 3]: 50 to 75%; Emax [2, 4]: < 25%

How did the Emax [1, 3] turn out when `CCC[C@H]1CCC[C@@H]([C@@H](O)c2cccc(F)c2)N1` [Example 35, (S)-(3-Fluorophenyl)((2S,6S)-6-propylpiperidin-2-yl)methanol hydrochloride] was run?
The Emax was 25 to 50%.

What about the Emax [2, 4] of the same molecule?
The Emax was < 25%.

For `CCC[C@H]1CCC[C@@H]([C@H](O)c2cccc(Cl)c2)N1` [Example 36, (R)-(3-Chlorophenyl)((2S,6S)-6-propylpiperidin-2-yl)methanol hydrochloride], which Emax [1, 3] is on record?
Its Emax is 25 to 50%.

What about the Emax [2, 4] of the same molecule?
Its Emax is < 25%.
